Measurements from ChEMBL document CHEMBL1129456, “Synthesis and evaluation of two positron-labeled nitric oxide synthase inhibitors, S-[11C]methylisothiourea and S-(2-[18F]fluoroethyl)isothiourea, as potential positron emission tomography tracers” (J Med Chem, 1996).

Tests used:
Rattus norvegicus [1] = species: Rattus norvegicus; assay: Biodistribution in lung of mature female Dawley rat after 1h, expressed as percent injected dose/g; assay type: ADME, organism-based; conditions: in vivo
Rattus norvegicus [2] = species: Rattus norvegicus; assay: Biodistribution in muscle of mature female Dawley rat after 3 h, expressed as percent injected dose/g; assay type: ADME, organism-based, Muscle tissue; conditions: in vivo
Rattus norvegicus [3] = species: Rattus norvegicus; assay: Biodistribution in abdominal Dawley rat after 30min, expressed as percent injected dose/g; assay type: ADME, organism-based; conditions: in vivo, 0.5 h
Rattus norvegicus [4] = species: Rattus norvegicus; assay: Biodistribution inl ilver of mature female Dawley rat after 30min, expressed as percent injected dose/g; assay type: ADME, organism-based; conditions: in vivo, 0.5 h
Rattus norvegicus [5] = species: Rattus norvegicus; assay: Biodistribution in brain of mature female Dawley rat after 3 h, expressed as percent injected dose/g; assay type: ADME, organism-based; conditions: in vivo
Rattus norvegicus [6] = species: Rattus norvegicus; assay: Biodistribution in abdominal of mature female Dawley rat after 1h, expressed as percent injected dose/g; assay type: ADME, organism-based, Abdominal cavity; conditions: in vivo
Rattus norvegicus [7] = species: Rattus norvegicus; assay: Biodistribution in fat of mature female Dawley rat after 1h, expressed as percent injected dose/g; assay type: ADME, organism-based, Adipose tissue; conditions: in vivo
Rattus norvegicus [8] = species: Rattus norvegicus; assay: Biodistribution in brain of mature female Dawley rat after 30min, expressed as percent injected dose/g; assay type: ADME, organism-based; conditions: in vivo, 0.5 h
Rattus norvegicus [9] = species: Rattus norvegicus; assay: Biodistribution in lung of mature female Dawley rat after 30min, expressed as percent injected dose/g; assay type: ADME, organism-based; conditions: in vivo, 0.5 h
Rattus norvegicus [10] = species: Rattus norvegicus; assay: Biodistribution in brain of mature female Dawley rat after 10min, expressed as percent injected dose/g; assay type: ADME, organism-based; conditions: in vivo
Rattus norvegicus [11] = species: Rattus norvegicus; assay: Biodistribution in brain of mature female Dawley rat after 1h, expressed as percent injected dose/g; assay type: ADME, organism-based; conditions: in vivo
Rattus norvegicus [12] = species: Rattus norvegicus; assay: Biodistribution in bone of mature female Dawley rat after 10min, expressed as percent injected dose/g; assay type: ADME, organism-based, Bone element; conditions: in vivo
Rattus norvegicus [13] = species: Rattus norvegicus; assay: Biodistribution inl iver of mature female Dawley rat after 3 h, expressed as percent injected dose/g; assay type: ADME, organism-based, Liver; conditions: in vivo
Rattus norvegicus [14] = species: Rattus norvegicus; assay: Biodistribution in bone of mature female Dawley rat after 3 h, expressed as percent injected dose/g; assay type: ADME, organism-based, Bone element; conditions: in vivo
Rattus norvegicus [15] = species: Rattus norvegicus; assay: Biodistribution in muscle of mature female Dawley rat after 10min, expressed as percent injected dose/g; assay type: ADME, organism-based, Muscle tissue; conditions: in vivo
Rattus norvegicus [16] = species: Rattus norvegicus; assay: Biodistribution in heart of mature female Dawley rat after 3 h, expressed as percent injected dose/g; assay type: ADME, organism-based; conditions: in vivo
Rattus norvegicus [17] = species: Rattus norvegicus; assay: Biodistribution in lung of mature female Dawley rat after 10min, expressed as percent injected dose/g; assay type: ADME, organism-based; conditions: in vivo
Rattus norvegicus [18] = species: Rattus norvegicus; assay: Biodistribution in liver of mature female Dawley rat after 10min, expressed as percent injected dose/g; assay type: ADME, organism-based; conditions: in vivo
Rattus norvegicus [19] = species: Rattus norvegicus; assay: Biodistribution in heart of mature female Dawley rat after 30min, expressed as percent injected dose/g; assay type: ADME, organism-based; conditions: in vivo, 0.5 h
Rattus norvegicus [20] = species: Rattus norvegicus; assay: Biodistribution in kidney of mature female Dawley rat after 1h, expressed as percent injected dose/g; assay type: ADME, organism-based; conditions: in vivo
Rattus norvegicus [21] = species: Rattus norvegicus; assay: Biodistribution in abdominal of mature female Dawley rat after 3 h, expressed as percent injected dose/g; assay type: ADME, organism-based, Abdominal cavity; conditions: in vivo
Rattus norvegicus [22] = species: Rattus norvegicus; assay: Biodistribution in blood of mature female Dawley rat after 3 h, expressed as percent injected dose/g; assay type: ADME, organism-based; conditions: in vivo
Rattus norvegicus [23] = species: Rattus norvegicus; assay: Biodistribution inl liver of mature female Dawley rat after 1h, expressed as percent injected dose/g; assay type: ADME, organism-based; conditions: in vivo
Rattus norvegicus [24] = species: Rattus norvegicus; assay: Biodistribution in muscle of mature female Dawley rat after 30min, expressed as percent injected dose/g; assay type: ADME, organism-based, Muscle tissue; conditions: in vivo, 0.5 h
Rattus norvegicus [25] = species: Rattus norvegicus; assay: Biodistribution in fat of mature female Dawley rat after 3 h, expressed as percent injected dose/g; assay type: ADME, organism-based, Adipose tissue; conditions: in vivo
Rattus norvegicus [26] = species: Rattus norvegicus; assay: Biodistribution in heart of mature female Dawley rat after 10min, expressed as percent injected dose/g; assay type: ADME, organism-based; conditions: in vivo
Rattus norvegicus [27] = species: Rattus norvegicus; assay: Biodistribution in blood of mature female Dawley rat after 10min, expressed as percent injected dose/g; assay type: ADME, organism-based; conditions: in vivo
Rattus norvegicus [28] = species: Rattus norvegicus; assay: Biodistribution in fat of mature female Dawley rat after 10min, expressed as percent injected dose/g; assay type: ADME, organism-based, Adipose tissue; conditions: in vivo
Rattus norvegicus [29] = species: Rattus norvegicus; assay: Biodistribution in heart of mature female Dawley rat after 1h, expressed as percent injected dose/g; assay type: ADME, organism-based; conditions: in vivo
Rattus norvegicus [30] = species: Rattus norvegicus; assay: Biodistribution in kidney of mature female Dawley rat after 30min, expressed as percent injected dose/g; assay type: ADME, organism-based; conditions: in vivo, 0.5 h
Rattus norvegicus [31] = species: Rattus norvegicus; assay: Biodistribution in abdominal of mature female Dawley rat after 10min, expressed as percent injected dose/g; assay type: ADME, organism-based, Abdominal cavity; conditions: in vivo
Rattus norvegicus [32] = species: Rattus norvegicus; assay: Biodistribution in bone of mature female Dawley rat after 30min, expressed as percent injected dose/g; assay type: ADME, organism-based, Bone element; conditions: in vivo, 0.5 h
Rattus norvegicus [33] = species: Rattus norvegicus; assay: Biodistribution in blood of mature female Dawley rat after 30min, expressed as percent injected dose/g; assay type: ADME, organism-based; conditions: in vivo, 0.5 h
Rattus norvegicus [34] = species: Rattus norvegicus; assay: Biodistribution in lung of mature female Dawley rat after 3 h, expressed as percent injected dose/g; assay type: ADME, organism-based; conditions: in vivo
Rattus norvegicus [35] = species: Rattus norvegicus; assay: Biodistribution in muscle of mature female Dawley rat after 1h, expressed as percent injected dose/g; assay type: ADME, organism-based, Muscle tissue; conditions: in vivo
Rattus norvegicus [36] = species: Rattus norvegicus; assay: Biodistribution in blood of mature female Dawley rat after 1h, expressed as percent injected dose/g; assay type: ADME, organism-based; conditions: in vivo
Rattus norvegicus [37] = species: Rattus norvegicus; assay: Biodistribution in bone of mature female Dawley rat after 1h, expressed as percent injected dose/g; assay type: ADME, organism-based, Bone element; conditions: in vivo
Rattus norvegicus [38] = species: Rattus norvegicus; assay: Biodistribution in kidney of mature female Dawley rat after 3 h, expressed as percent injected dose/g; assay type: ADME, organism-based; conditions: in vivo
Rattus norvegicus [39] = species: Rattus norvegicus; assay: Biodistribution in fat of mature female Dawley rat after 30min, expressed as percent injected dose/g; assay type: ADME, organism-based, Adipose tissue; conditions: in vivo, 0.5 h
Rattus norvegicus [40] = species: Rattus norvegicus; assay: Biodistribution in kidney of mature female Dawley rat after 10min, expressed as percent injected dose/g; assay type: ADME, organism-based; conditions: in vivo

SMILES: N=C(N)SCC[18F]
- Biodistribution (Rattus norvegicus [1]): 0.38%
- Biodistribution (Rattus norvegicus [2]): 0.14%
- Biodistribution (Rattus norvegicus [3]): 0.31%
- Biodistribution (Rattus norvegicus [4]): 0.51%
- Biodistribution (Rattus norvegicus [5]): 0.16%
- Biodistribution (Rattus norvegicus [6]): 0.26%
- Biodistribution (Rattus norvegicus [7]): 0.07%
- Biodistribution (Rattus norvegicus [8]): 0.15%
- Biodistribution (Rattus norvegicus [9]): 0.57%
- Biodistribution (Rattus norvegicus [10]): 0.14%
- Biodistribution (Rattus norvegicus [11]): 0.17%
- Biodistribution (Rattus norvegicus [12]): 0.55%
- Biodistribution (Rattus norvegicus [13]): 0.16%
- Biodistribution (Rattus norvegicus [14]): 1.19%
- Biodistribution (Rattus norvegicus [15]): 0.33%
- Biodistribution (Rattus norvegicus [16]): 0.16%
- Biodistribution (Rattus norvegicus [17]): 1.02%
- Biodistribution (Rattus norvegicus [18]): 0.95%
- Biodistribution (Rattus norvegicus [19]): 0.37%
- Biodistribution (Rattus norvegicus [20]): 0.64%
- Biodistribution (Rattus norvegicus [21]): 0.16%
- Biodistribution (Rattus norvegicus [22]): 0.19%
- Biodistribution (Rattus norvegicus [23]): 0.35%
- Biodistribution (Rattus norvegicus [24]): 0.38%
- Biodistribution (Rattus norvegicus [25]): 0.04%
- Biodistribution (Rattus norvegicus [26]): 0.62%
- Biodistribution (Rattus norvegicus [27]): 0.32%
- Biodistribution (Rattus norvegicus [28]): 0.08%
- Biodistribution (Rattus norvegicus [29]): 0.29%
- Biodistribution (Rattus norvegicus [30]): 1.06%
- Biodistribution (Rattus norvegicus [31]): 0.38%
- Biodistribution (Rattus norvegicus [32]): 0.82%
- Biodistribution (Rattus norvegicus [33]): 0.27%
- Biodistribution (Rattus norvegicus [34]): 0.17%
- Biodistribution (Rattus norvegicus [35]): 0.32%
- Biodistribution (Rattus norvegicus [36]): 0.32%
- Biodistribution (Rattus norvegicus [37]): 0.88%
- Biodistribution (Rattus norvegicus [38]): 0.21%
- Biodistribution (Rattus norvegicus [39]): 0.07%
- Biodistribution (Rattus norvegicus [40]): 1.82%
